This is an account of results in patent publication US7572606B1 (Nereus Pharmaceuticals, Inc., priority 2005, dated 2009).

Molecules are shown by their SMILES. Where “and” joins values, the source holds several entries; their conditions need not be identical. Identical values can stand only once. Like-named read-outs stand apart in the source and are kept apart here. A value given as a limit tells only on which side of the number the result lay.

In one series the test system is B16-F10. Briefly: Cell growth inhibition, resazurin, 48 h. Format: cell-based, mouse. Conditions: B16-F10, 48 h drug exposure. The procedure:
(§1) RPMI 8226 (CCL-155), HT-29 (HTB-38), and B16-F10 (CRL-6475) cells were purchased from ATCC. RPMI 8226 cells were maintained in RPMI 1640 media supplemented with 10% (v/v) FBS, 2 mM L-glutamine, 1 mM sodium pyruvate and Penicillin/Streptomycin at 100 IU/ml and 100 μg/ml, respectively. HT-29 cells were maintained in McCoys 5A supplemented with 10% (v/v) FBS, 2 mM L-glutamine, 1 mM sodium pyruvate, 1% (v/v) non-essential amino acids, 10 mM HEPES and Penicillin/Streptomycin at 100 IU/ml and 100 μg/ml, respectively. B16-F10 cells were maintained in DMEM supplemented with 10% (v/v) FBS, 2 mM L-glutamine, 10 mM HEPES and Penicillin/Streptomycin at 100 IU/ml and 100 μg/ml, respectively.
(§2) RPMI 8226 cells were seeded at 2×10^4 cells/well in 90 μl RPMI media containing 10% (v/v) FBS or 1% (v/v) FBS into 96 well black-walled, clear-bottom tissue culture plates. […] Formulae II-16, II-17 and Formula II-18 were serially diluted in media containing 1% or 10% FBS and added in triplicate to the test wells. […] The final concentration of Formula II-18 ranged from 2 μM to 630 pM.

For another series, the system named is HT-29. Briefly: Cell growth inhibition, resazurin, 48 h. Particulars: HT-29, 48 h drug exposure. Format: cell-based, human. As for the experimental part: as §1, §2
The next series relates to RPMI 8226. The series can be described thus: Cell growth inhibition, resazurin, 48 h. Conditions: RPMI 8226, 48 h drug exposure. As for the experimental part: as §1, §2
The next series has as its system U266. Briefly: Cell growth inhibition, resazurin, 48 h. Conditions: U266, 48 h drug exposure, read-out: EC50. The class given is cell-based, human.
A further series has as its system MES-SA/Dx5. Briefly: Cell growth inhibition, resazurin, 48 h. Conditions: for EC50: MES-SA/Dx5, 48 h drug exposure. The procedure: (§3) Concentrations ranging from 6.32 μM to 2 nM were tested for II-2 and II-4.
The next series concerns HL-60. Briefly: Cell growth inhibition, resazurin, 48 h. Particulars: Homo sapiens, HL-60, 48 h, HL-60, 48 h drug exposure. As for the experimental part: (§4) The DNA binding agent Mitoxantrone was included as a control, as HL-60/MX2 cells are reported to be resistant to this chemotherapeutic agent (Harker W. G. et al. 1989).
as §3
For orientation: Resazurin is reduced to fluorescent resorufin, in cell work by metabolically active cells.

In series [1] the target is T1, trypsin-like activity of rabbit muscle 20S proteasome (Oryctolagus cuniculus, UniProt G1SWK8).
T1 construct: EC50 Trypsin-like; other: purified rabbit 20S proteasome, Boc-LRR-AMC; other: under the conditions tested
T1 sequence (G1SWK8 1-271): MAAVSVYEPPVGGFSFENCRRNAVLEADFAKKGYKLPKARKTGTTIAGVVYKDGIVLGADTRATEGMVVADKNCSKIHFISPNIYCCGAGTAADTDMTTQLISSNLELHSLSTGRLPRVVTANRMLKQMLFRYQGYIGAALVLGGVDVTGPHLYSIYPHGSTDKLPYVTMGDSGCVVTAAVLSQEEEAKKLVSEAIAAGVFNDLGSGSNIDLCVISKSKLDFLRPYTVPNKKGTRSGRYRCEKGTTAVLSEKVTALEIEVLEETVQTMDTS
Briefly: In vitro inhibition of 20S proteasome, Boc-LRR-AMC. Format: biochemical.

The test system of series [2] is NF-κB-mediated luciferase activity in HEK293 NF-κB/Luc cells. The series can be described thus: NF-κB-mediated luciferase reporter gene assay. The class given is cell-based, human. Conditions: for luciferase activity upon TNF-α stimulation: pretreatment of NF-κB/Luc 293 cells; for EC50: 6 h TNF-α stimulation. As for the experimental part:
The HEK293 NF-κB/luciferase reporter cell line is a derivative of the human embryonic kidney cell line (ATCC; CRL-1573) and carries a luciferase reporter gene under the regulation of 5×NF-κB binding sites. […] When performing the luciferase assay, the DMEM basal medium was replaced with phenol-red free DMEM basal medium and the G418 was omitted.
For NF-κB-mediated luciferase assays, HEK293 NF-κB/luciferase cells were seeded at 1.5×10^4 cells/well in 90 μl phenol-red free DMEM complete medium into Corning 3917 white opaque-bottom tissue culture plates. For Formulae II-2, II-4, II-5A and II-18, a 400 μM starting dilution was made in 100% DMSO and this dilution was used to generate an 8-point half log dilution series. […] For formula II-20, a 2.5 mM or 8 mM starting dilution was made in 100% DMSO and the final test concentrations ranged from 6.3 μM to 2.0 nM or 20 μM to 6.3 nM respectively. The plates were returned to the incubator for 1 hour. After 1 hr pretreatment, 10 μl of a 50 ng/ml TNF-α solution, prepared in the phenol-red free DMEM medium was added, and the plates were incubated for an additional 6 hours.
At the end of the TNF-α stimulation, 100 μl of Steady Lite HTS luciferase reagent (Packard Bioscience) was added to each well and the plates were left undisturbed for 10 min at room temperature before measuring the luciferase activity. The relative luciferase units (RLU) were measured by using a Fusion microplate fluorometer (Packard Bioscience).
NF-κB inducible luciferase activity was measured at 6 hours.

The target of series [3] is caspase-like (PGPH) activity of rabbit muscle 20S proteasome (Oryctolagus cuniculus, UniProt A0A5F9DQW2). Briefly: In vitro inhibition of 20S proteasome, Z-LLE-AMC.
In the next series the test system is OVCAR-3. The series can be described thus: Cell growth inhibition, resazurin, 48 h. The class given is cell-based, human. Conditions: OVCAR-3, 48 h drug exposure.
In another series the test system is HL-60/MX2. Briefly: Cell growth inhibition, resazurin, 48 h. Conditions: HL-60/MX2, 48 h drug exposure. As for the experimental part:
as §4, §3

The test system of another series is MDA-MB-231. Briefly: Cell growth inhibition, resazurin, 48 h. The class given is cell-based, human. Conditions: MDA-MB-231, 48 h drug exposure.
The next series relates to NCI-H292. The series can be described thus: Cell growth inhibition, resazurin, 48 h. The class given is cell-based, human. Conditions: NCI-H292, 48 h drug exposure.
Another series deals with PC-3. Briefly: Cell growth inhibition, resazurin, 48 h. Conditions: Homo sapiens, PC-3, 48 h, PC-3, 48 h drug exposure.
For series [4], the target named is T2, chymotrypsin-like activity of rabbit muscle 20S proteasome (Oryctolagus cuniculus, UniProt G1T4Q9).
T2 sequence (G1T4Q9 1-263): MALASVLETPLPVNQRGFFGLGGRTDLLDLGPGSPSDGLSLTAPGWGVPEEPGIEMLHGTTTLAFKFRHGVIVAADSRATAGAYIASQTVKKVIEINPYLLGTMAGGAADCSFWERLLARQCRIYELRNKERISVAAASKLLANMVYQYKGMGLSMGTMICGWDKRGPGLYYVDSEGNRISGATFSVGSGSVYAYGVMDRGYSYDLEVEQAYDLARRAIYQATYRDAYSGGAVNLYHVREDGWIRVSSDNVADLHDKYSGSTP
The series can be described thus: In vitro inhibition of 20S proteasome, suc-LLVY-AMC.

Setting [5] is: Mus musculus, B16-F10, 48 h, read-out: EC50.
The mark [6] stands for this setting: read-out: EC50 Caspase-like, purified rabbit 20S proteasome, Z-LLE-AMC.
Setting [7] is: read-out: EC50 Chymotrypsin-like, purified rabbit 20S proteasome, suc-LLVY-AMC.

Sequence of caspase-like (PGPH) activity of rabbit muscle 20S proteasome (A0A5F9DQW2 1-212): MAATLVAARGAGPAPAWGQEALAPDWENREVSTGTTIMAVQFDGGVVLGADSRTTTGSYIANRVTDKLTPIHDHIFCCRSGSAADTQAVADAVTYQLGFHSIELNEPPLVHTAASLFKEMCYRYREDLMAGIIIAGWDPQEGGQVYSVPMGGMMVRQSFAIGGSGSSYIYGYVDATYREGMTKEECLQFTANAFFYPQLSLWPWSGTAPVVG

One may read the EC50 as the concentration giving half of the maximal effect. With `C[C@@]12OC(=O)[C@]1([C@@H](O)C1CCCCC1)NC(=O)[C@@H]2CCCl` [Formula II-2], the EC50 in the series with B16-F10 (setting [5]) is 194 nM; with HT-29 (Homo sapiens, read-out: EC50), 129 ± 21 nM; in the series with RPMI 8226 (Homo sapiens, RPMI-8226, 48 h) it was 49 nM; in the series with U266, 39 nM; with MES-SA/Dx5 (Homo sapiens, MES-SA/Dx5, 48 h), 220 nM; with MES-SA/Dx5, 138 nM. Also, the concentration giving a half-maximal response (EC50) is 237 nM with HL-60; 1300 nM and 1700 nM in series [3] (setting [6]). Besides, the “inhibition of the trypsin-like activity of the 20S proteasome” value (shortened to “inhibition”) in series [1] (under the conditions tested) is “able to inhibit the trypsin-like activity”. Further, the “luciferase activity upon TNF-α stimulation” value in [2] is “dose-dependent decrease of luciferase activity”.

Regarding `CC[C@H]1C(=O)N[C@@]2([C@@H](O)C3CCCCC3)C(=O)O[C@@]12C` [Formula II-3], the EC50 in the series on HT-29 (Homo sapiens, read-out: EC50) is over 20000 nM; with RPMI 8226 (Homo sapiens, RPMI-8226, 48 h), over 20000 nM; in the series with U266 (Homo sapiens, U-266, 48 h) it was over 20000 nM; in the series with MES-SA/Dx5 (Homo sapiens, MES-SA/Dx5, 48 h), over 20000 nM; in [3] (read-out: EC50 Caspase-like) it was over 20000 nM. The “inhibition” value in series [1] is “able to inhibit the trypsin-like activity”.

`C[C@@]12OC(=O)[C@]1([C@@H](O)C1CCCCC1)NC(=O)[C@@H]2CCBr` [Formula II-4]: the EC50 with B16-F10 (setting [5]) was 163 nM; in the series on OVCAR-3 (Homo sapiens, read-out: EC50), over 6320 nM; in the series with RPMI 8226 (Homo sapiens, RPMI-8226, 48 h) it was 57 nM; in the series with RPMI 8226, 51 nM; in the series on U266 (Homo sapiens, U-266, 48 h), 34 nM; in the series with U266, 39 nM. Also, the EC50 in the series with MES-SA/Dx5 (Homo sapiens, MES-SA/Dx5, 48 h) stood at 178 nM; in the series on MES-SA/Dx5, 93 nM; with HL-60/MX2 (Homo sapiens, HL60/MX2, 48 h), 97 nM; in the series on HL-60 it was 143 nM; in series [2] (1 h pretreatment, read-out: EC50), 88 nM; in [2] (Homo sapiens, HEK293, 1 h pretreatment, read-out: EC50), 67 nM. Also, the EC50 in series [3] (read-out: EC50 Caspase-like (PGPH)) is 850 nM and 637 nM. Also, the “inhibition” value in [1] is reported as “able to inhibit the trypsin-like activity”. For the same compound, the “luciferase activity upon TNF-α stimulation” value in series [2] is reported as “dose-dependent decrease of luciferase activity”.

As to `C[C@@]12OC(=O)[C@]1([C@@H](O)[C@H]1CCC[C@H]3O[C@@H]13)NC(=O)[C@@H]2CCCl` [Formula II-5A], the EC50 with B16-F10 (Mus musculus, B16-F10, 48 h) was 78 ± 11 nM; in the series on HT-29 (Homo sapiens, HT-29, 48 h), 67 ± 17 nM; in the series on MDA-MB-231 (Homo sapiens, MDA-MB-231, 48 h) it was 61 ± 4.6 nM; in the series with NCI-H292 (Homo sapiens, NCI-H292, 48 h) it was 102 ± 19 nM; in the series with OVCAR-3 (Homo sapiens, OVCAR-3, 48 h), 80 nM; in the series on OVCAR-3, 64 nM. The EC50 in series [1] (purified rabbit 20S proteasome, Boc-LRR-AMC) was 90 nM; in series [2] (1 h pretreatment) it was 33 nM; in the series with PC-3, 109 ± 15 nM; in [3] (read-out: EC50 Caspase-like (PGPH), purified rabbit 20S proteasome, Z-LLE-AMC), 535 nM and 438 nM; in series [4], 2 to 11 nM; in series [4] (setting [7]) it was 7 nM. For the same compound, the “inhibition” value in series [1] (under the conditions tested) is recorded as “able to inhibit the trypsin-like activity”. Further, the “luciferase activity upon TNF-α stimulation” value in series [2] is on record as “dose-dependent decrease of luciferase activity”.

Regarding `C[C@@]12OC(=O)[C@]1([C@@H](O)[C@H]1CCC[C@@H]3O[C@H]13)NC(=O)[C@@H]2CCCl` [Formula II-5B], the EC50 came out at 1140 nM with B16-F10; 1270 nM with B16-F10 (Mus musculus, B16-F10, 48 h); 1210 nM in the series with HT-29; 957 nM in the series on MDA-MB-231; 992 nM in the series on NCI-H292 (Homo sapiens, NCI-H292, 48 h); 1250 nM in the series with NCI-H292. In addition, the EC50 was 1320 nM with OVCAR-3 (Homo sapiens, OVCAR-3, 48 h); 279 nM in series [2] (1 h pretreatment); 1790 nM in the series with PC-3; 3800 nM and 2900 nM in series [3] (setting [6]); 13 to 88 nM in series [4]; 85 nM in series [4] (setting [7]). Further, the “inhibition” value in series [1] (under the conditions tested) is “able to inhibit the trypsin-like activity”. Also, in [2], the “luciferase activity upon TNF-α stimulation” value is “dose-dependent decrease of luciferase activity”.

In the case of `O=C1c2c(O)ccc(O)c2C(=O)c2c(NCCNCCO)ccc(NCCNCCO)c21` [Mitoxantrone, reference compound], the EC50 in the series on HL-60/MX2 was 827 nM and 1340 nM and 1170 nM; in the series on HL-60/MX2 (Homo sapiens, HL60/MX2, 48 h) it was 1410 nM.

For the compound `CC(=O)O[C@H]1C(=O)[C@@]2(C)[C@H]([C@H](OC(=O)c3ccccc3)[C@]3(O)C[C@H](OC(=O)[C@H](O)[C@@H](NC(=O)c4ccccc4)c4ccccc4)C(C)=C1C3(C)C)[C@]1(OC(C)=O)CO[C@@H]1C[C@@H]2O` [Paclitaxel, reference compound], the “% cytotoxicity” value in the series with MES-SA/Dx5 (human, 48 h) stood at 78 ± 1%.
